Data on 2 compounds can be found in patent US20220169598A1, “HALOGENATED PHENYLSULFONAMIDE HYDROXAMIC ACID COMPOUNDS, COMPOSITIONS AND USES THEREOF AS SELECTIVE HDAC6 INHIBITORS” (2681603 ONTARIO INC., priority 2019, published 2022).

A short description of series [1]: Kinetic solubility by analytical HPLC. The settings on record: PBS with 5% (v/v) DMSO, aqueous with cosolvent or surfactant or cyclodextrin, kinetic from dmso stock; PBS + 5% DMSO; initial concentration 300 μM; read-out: Saturation Concentration. The format is physicochemical. How it is done: The initial concentration of each exemplary compound was 300 μM.
Another series relates to MV-4-11. Description: Apoptosis induction by FACS (FITC-Annexin V / PI). Format: cell-based. Conditions: MV-4-11, increasing concentration of inhibitor.
The next series deals with T1, HDAC10 (Homo sapiens, UniProt Q969S8).
T1 sequence (Q969S8 1-669): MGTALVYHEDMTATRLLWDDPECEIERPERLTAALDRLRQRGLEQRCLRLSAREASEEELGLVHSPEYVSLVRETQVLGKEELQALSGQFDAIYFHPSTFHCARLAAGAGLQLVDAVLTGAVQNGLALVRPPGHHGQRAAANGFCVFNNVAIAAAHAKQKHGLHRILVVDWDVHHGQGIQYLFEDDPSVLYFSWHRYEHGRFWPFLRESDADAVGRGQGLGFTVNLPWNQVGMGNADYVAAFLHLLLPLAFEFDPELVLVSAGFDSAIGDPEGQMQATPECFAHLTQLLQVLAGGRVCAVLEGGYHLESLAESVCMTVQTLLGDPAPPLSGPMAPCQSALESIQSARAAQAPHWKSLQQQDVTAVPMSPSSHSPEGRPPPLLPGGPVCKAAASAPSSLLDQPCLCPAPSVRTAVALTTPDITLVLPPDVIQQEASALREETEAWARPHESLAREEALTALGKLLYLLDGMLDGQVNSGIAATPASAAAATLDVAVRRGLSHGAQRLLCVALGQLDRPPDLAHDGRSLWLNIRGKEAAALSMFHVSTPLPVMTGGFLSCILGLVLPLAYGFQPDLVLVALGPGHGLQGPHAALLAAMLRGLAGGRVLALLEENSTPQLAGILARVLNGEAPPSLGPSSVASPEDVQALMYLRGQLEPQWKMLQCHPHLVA
Briefly: in vitro activity-based HDAC assay. The format is biochemical. The settings on record: human HDAC isoform panel, Table 1.

Another series concerns the target HDAC5 (Homo sapiens, UniProt Q9UQL6). Briefly: in vitro activity-based HDAC assay. Format: biochemical. Conditions: human HDAC isoform panel, Table 1.
In the next series the target is HDAC8 (Homo sapiens, UniProt Q9BY41). Description: in vitro activity-based HDAC assay. Conditions: human HDAC isoform panel, Table 1. The format is biochemical.
Chain of HDAC8 (Q9BY41 whole entry, canonical isoform): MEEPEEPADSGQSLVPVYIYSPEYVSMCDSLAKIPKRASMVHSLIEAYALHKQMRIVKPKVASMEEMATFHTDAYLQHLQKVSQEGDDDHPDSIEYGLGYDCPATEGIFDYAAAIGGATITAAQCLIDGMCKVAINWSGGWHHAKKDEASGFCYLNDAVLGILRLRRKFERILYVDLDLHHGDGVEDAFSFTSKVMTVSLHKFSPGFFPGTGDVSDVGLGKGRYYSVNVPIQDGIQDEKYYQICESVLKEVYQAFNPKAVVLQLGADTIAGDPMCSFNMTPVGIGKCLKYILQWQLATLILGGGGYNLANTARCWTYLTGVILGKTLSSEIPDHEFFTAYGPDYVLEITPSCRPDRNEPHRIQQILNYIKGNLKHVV
Another series concerns the target HDAC9 (Homo sapiens, UniProt Q9UKV0). Briefly: in vitro activity-based HDAC assay. Format: biochemical. The settings on record: human HDAC isoform panel, Table 1.
The target in a further series is HDAC2 (Homo sapiens, UniProt Q92769). Description: in vitro activity-based HDAC assay. Format: biochemical. The settings on record: human HDAC isoform panel, Table 1.
Chain of HDAC2 (Q92769 whole entry, canonical isoform): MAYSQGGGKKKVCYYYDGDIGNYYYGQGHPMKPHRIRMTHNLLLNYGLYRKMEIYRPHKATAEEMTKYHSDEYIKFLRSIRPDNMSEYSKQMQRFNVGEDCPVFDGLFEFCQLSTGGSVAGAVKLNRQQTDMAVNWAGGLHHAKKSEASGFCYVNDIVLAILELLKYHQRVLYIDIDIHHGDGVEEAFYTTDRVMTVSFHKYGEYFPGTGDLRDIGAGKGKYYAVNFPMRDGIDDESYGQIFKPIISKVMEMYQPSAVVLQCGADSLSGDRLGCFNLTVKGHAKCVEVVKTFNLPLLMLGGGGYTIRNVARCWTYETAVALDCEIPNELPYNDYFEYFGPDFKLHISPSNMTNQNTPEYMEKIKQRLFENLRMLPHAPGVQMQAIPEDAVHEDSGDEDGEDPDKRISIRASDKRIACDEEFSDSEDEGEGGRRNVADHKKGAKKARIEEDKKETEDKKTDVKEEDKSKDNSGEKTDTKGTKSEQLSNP
Another series has as its target T2, HDAC6 (Homo sapiens, UniProt Q9UBN7).
T2 sequence (Q9UBN7 1-1215): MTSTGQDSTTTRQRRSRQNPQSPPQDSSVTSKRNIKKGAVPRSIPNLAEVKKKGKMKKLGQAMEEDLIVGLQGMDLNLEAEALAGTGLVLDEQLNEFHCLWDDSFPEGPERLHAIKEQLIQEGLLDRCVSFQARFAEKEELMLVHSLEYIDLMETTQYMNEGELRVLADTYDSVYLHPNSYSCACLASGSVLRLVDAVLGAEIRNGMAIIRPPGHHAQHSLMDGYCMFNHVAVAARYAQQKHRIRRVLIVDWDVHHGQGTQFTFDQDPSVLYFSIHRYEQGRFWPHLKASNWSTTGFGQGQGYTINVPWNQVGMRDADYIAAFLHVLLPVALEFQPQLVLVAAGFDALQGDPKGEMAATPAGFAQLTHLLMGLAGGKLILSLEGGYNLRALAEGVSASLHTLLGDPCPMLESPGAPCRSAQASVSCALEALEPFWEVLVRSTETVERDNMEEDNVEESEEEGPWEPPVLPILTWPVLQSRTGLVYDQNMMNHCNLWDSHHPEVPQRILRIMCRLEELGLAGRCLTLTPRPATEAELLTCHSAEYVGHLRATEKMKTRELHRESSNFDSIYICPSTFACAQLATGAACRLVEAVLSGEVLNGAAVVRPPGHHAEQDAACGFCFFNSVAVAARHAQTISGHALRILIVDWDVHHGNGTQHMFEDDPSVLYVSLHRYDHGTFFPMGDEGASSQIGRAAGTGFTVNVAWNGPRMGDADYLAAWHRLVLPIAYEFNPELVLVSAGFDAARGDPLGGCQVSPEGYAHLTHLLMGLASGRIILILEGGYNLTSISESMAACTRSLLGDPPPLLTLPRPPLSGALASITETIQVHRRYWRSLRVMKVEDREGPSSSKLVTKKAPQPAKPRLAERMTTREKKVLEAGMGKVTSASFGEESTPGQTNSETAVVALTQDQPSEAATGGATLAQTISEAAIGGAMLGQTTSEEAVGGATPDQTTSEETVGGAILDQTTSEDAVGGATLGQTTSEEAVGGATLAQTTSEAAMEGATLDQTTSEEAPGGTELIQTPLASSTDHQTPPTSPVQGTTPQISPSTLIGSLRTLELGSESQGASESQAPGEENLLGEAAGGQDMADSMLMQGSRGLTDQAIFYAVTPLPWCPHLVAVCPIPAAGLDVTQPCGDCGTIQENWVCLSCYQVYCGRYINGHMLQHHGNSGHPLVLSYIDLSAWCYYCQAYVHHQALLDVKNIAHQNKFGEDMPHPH
Description: in vitro activity-based HDAC assay. The format is biochemical. Conditions: human HDAC isoform panel, Table 1; read-out: IC50 HDAC6.

The next series addresses HDAC4 (Homo sapiens, UniProt P56524). Description: in vitro activity-based HDAC assay. Conditions: human HDAC isoform panel, Table 1. Format: biochemical.
The target of the next series is HDAC11 (Homo sapiens, UniProt Q96DB2). Description: in vitro activity-based HDAC assay. Format: biochemical. The settings on record: human HDAC isoform panel, Table 1.
Chain of HDAC11 (Q96DB2 whole entry, canonical isoform): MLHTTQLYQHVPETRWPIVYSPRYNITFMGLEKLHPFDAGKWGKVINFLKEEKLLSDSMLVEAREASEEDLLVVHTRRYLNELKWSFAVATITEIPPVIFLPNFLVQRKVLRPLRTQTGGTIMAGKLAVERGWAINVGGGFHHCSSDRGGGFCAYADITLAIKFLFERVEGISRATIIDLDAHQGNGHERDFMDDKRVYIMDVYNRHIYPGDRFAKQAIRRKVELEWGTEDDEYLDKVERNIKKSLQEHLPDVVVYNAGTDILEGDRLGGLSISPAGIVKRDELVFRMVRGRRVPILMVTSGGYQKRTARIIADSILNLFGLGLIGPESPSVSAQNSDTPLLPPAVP

Chain of HDAC9 (Q9UKV0 whole entry, canonical isoform): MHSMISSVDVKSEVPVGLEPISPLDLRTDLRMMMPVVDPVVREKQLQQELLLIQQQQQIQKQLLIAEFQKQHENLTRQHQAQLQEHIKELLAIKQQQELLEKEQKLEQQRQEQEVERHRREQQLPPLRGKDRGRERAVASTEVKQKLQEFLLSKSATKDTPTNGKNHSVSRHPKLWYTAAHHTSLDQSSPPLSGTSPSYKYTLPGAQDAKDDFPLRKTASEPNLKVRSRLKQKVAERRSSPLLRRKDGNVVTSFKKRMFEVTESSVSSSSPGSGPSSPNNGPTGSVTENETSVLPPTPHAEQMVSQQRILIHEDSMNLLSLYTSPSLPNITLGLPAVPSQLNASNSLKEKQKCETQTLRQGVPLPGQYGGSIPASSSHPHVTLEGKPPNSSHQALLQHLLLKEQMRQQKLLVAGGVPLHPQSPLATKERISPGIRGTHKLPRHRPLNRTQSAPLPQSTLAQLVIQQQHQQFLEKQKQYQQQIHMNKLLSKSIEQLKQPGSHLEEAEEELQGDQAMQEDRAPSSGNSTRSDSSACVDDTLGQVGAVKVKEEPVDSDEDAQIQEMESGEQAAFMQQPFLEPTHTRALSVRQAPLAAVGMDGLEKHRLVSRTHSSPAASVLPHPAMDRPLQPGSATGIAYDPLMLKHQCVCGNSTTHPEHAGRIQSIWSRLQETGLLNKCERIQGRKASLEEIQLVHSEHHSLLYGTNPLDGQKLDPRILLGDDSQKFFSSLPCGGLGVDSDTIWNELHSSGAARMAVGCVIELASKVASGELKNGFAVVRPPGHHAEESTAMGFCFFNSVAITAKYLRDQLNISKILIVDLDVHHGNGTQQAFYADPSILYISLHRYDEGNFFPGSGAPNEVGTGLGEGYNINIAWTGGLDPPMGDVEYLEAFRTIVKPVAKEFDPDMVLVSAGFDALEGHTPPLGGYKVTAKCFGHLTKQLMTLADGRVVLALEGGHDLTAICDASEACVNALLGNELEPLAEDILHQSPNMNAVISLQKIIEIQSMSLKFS
Chain of HDAC5 (Q9UQL6 whole entry, canonical isoform): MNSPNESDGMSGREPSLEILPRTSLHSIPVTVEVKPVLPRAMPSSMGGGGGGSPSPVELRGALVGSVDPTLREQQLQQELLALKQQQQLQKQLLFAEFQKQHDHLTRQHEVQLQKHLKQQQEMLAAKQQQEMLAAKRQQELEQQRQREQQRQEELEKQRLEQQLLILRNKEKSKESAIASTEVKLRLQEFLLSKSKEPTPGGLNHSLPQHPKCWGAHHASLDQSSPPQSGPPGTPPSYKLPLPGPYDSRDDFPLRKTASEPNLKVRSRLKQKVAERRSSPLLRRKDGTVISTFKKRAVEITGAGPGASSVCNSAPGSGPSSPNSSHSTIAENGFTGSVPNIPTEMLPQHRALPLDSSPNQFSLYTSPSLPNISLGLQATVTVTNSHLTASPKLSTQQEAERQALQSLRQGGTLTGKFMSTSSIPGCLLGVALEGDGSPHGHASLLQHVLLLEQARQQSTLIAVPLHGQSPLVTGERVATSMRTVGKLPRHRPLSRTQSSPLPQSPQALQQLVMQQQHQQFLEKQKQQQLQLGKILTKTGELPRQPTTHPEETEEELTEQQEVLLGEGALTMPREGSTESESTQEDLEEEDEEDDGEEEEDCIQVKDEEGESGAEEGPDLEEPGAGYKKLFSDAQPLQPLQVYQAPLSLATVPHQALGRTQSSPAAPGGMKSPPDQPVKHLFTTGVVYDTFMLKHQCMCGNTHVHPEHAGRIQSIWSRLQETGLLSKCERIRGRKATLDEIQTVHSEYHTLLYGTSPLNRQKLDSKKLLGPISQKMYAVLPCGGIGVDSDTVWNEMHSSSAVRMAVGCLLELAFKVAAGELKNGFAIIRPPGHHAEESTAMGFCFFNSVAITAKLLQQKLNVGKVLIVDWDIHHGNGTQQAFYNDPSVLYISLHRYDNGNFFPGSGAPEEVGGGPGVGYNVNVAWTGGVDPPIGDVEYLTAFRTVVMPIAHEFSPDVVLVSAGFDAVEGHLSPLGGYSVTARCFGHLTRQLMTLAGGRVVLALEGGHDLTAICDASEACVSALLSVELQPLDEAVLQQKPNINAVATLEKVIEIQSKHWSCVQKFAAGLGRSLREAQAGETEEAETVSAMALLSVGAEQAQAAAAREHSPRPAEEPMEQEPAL
Chain of HDAC4 (P56524 whole entry, canonical isoform): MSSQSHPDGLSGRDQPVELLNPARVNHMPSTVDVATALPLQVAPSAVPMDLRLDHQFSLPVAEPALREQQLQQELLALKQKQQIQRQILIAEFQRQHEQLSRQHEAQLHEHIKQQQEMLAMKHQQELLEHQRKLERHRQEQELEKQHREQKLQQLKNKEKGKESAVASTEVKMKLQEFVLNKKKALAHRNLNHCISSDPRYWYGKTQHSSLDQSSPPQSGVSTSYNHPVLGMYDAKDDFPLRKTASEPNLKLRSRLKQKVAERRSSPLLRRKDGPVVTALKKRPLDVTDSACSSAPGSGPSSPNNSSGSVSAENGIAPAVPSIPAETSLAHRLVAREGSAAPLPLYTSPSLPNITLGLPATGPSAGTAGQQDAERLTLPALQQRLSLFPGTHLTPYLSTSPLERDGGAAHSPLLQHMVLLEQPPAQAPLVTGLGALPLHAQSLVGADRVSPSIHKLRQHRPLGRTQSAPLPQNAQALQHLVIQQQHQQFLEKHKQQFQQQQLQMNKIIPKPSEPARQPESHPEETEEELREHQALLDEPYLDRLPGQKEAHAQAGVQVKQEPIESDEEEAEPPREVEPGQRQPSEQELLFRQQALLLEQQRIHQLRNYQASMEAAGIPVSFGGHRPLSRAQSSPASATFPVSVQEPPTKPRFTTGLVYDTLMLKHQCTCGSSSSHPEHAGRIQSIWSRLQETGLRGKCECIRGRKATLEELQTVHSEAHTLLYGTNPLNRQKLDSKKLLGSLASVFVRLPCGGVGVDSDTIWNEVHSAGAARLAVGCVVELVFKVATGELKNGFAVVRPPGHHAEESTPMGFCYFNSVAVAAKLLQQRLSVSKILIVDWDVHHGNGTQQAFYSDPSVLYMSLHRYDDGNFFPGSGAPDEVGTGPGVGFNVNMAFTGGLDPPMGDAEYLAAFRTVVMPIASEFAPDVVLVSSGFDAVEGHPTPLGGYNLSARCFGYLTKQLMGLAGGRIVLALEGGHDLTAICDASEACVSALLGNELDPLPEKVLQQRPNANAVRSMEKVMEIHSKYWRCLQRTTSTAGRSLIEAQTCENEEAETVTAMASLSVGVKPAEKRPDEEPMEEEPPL

As for `O=C(NO)c1ccc(CN(Cc2cccnc2)S(=O)(=O)c2cc(F)c(F)c(F)c2F)cc1` [Compound I-18, N-hydroxy-4-((2,3,4,5-tetrafluoro-N-(pyridin-3-ylmethyl)phenylsulfonamido)methyl)benzamide], in series [1], the solubility kinetic was found to be 142 ± 2.4 µM. Also, the “apoptotic-inducting potential (FACS)” value with MV-4-11 is reported as “larger populations of cells undergoing early apoptosis”. The IC50 at HDAC10 was 0.551 µM; against HDAC5 it was over 1 µM; on HDAC8, 0.316 µM; against HDAC9 it was over 1 µM; against HDAC2 it was over 1 µM; on HDAC6, 0.002 µM. In addition, the IC50 against HDAC4 and against HDAC11 was over 1 µM each time.

Turning to `O=C(NO)c1ccc(CN(C2CC2)S(=O)(=O)c2cc(F)c(F)c(F)c2F)cc1` [Compound I-13, 4-((N-cyclopropyl-2,3,4,5-tetrafluorophenylsulfonamido)methyl)-N-hydroxybenzamide], in series [1], the solubility kinetic is 88.1 ± 1.6 µM. For the same compound, the “apoptotic-inducting potential (FACS)” value with MV-4-11 was “larger populations of cells undergoing early apoptosis”. The half-inhibitory concentration (IC50) on HDAC10 is over 1 µM; against HDAC5, over 1 µM; against HDAC8, 0.334 µM; against HDAC9, over 1 µM; against HDAC2 it was over 1 µM; on HDAC6 it was 0.009 µM. Further, the IC50 at HDAC4 and against HDAC11 was over 1 µM each time.
